From patent publication US8557839B2, “Fused ring azadecalin glucocorticoid receptor modulators” (Corcept Therapeutics, Inc., priority 2004, dated 2013)

Key:
glucocorticoid receptors [1] = biological target: T1, glucocorticoid receptors (Homo sapiens, UniProt P04150); test: Glucocorticoid receptor binding displacement assay with 3H-dexamethasone; parameters: This GR was a full-length steroid hormone receptor; host or cells: recombinant baculovirus-infected insect cells
T1 sequence (P04150 1-777): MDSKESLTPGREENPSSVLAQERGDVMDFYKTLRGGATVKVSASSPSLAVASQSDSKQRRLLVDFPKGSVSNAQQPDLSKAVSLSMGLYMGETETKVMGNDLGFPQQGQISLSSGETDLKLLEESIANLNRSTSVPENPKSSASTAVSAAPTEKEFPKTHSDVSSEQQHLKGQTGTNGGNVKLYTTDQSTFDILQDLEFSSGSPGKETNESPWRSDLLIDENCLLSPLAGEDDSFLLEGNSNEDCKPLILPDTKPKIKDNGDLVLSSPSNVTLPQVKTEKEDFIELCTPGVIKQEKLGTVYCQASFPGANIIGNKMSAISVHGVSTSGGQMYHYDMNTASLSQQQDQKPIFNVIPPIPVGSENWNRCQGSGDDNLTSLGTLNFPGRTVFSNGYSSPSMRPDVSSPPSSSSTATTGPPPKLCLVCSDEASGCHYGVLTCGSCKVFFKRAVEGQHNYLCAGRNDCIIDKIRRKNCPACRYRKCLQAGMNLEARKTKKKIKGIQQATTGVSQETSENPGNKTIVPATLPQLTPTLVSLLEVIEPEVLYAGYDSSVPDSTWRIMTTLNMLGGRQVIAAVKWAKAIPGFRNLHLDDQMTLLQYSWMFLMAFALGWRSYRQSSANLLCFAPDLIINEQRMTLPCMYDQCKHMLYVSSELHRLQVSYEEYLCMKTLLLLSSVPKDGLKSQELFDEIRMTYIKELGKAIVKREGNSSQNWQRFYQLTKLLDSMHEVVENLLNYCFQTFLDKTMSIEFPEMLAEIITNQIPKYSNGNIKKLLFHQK
Description: The source of the receptor was recombinant baculovirus-infected insect cells. This GR was a full-length steroid hormone receptor likely to be associated with heat-shock and other endogenous proteins.
For the Primary Screen, test compounds were tested at 1 μM in duplicate. These compounds were diluted from 10 mM stock in 100% DMSO. After dilution to 100 μM, 5 μl were added to 245 μl assay buffer to obtained 2 μM compound and 2% DMSO.
For the IC50 determinations, test compounds were tested at 6 concentrations in duplicate (concentration range depends on % inhibition binding that was obtained in the Primary Screen). Test compounds were diluted from 10 mM stock in 100% DMSO. The tested solutions were prepared at 2× final assay concentration in 2% DMSO/assay buffer.
All reagents and the assay plate were kept on ice during the addition of reagents. […] After the additions, the incubation mixture was mixed and incubated for 2.5 hrs at 4° C.
After 2.5 hrs incubation, unbound counts were removed with dextran coated charcoal (DCC) as follows: 25 μl of DCC solution (10% DCC in assay buffer) was added to all wells and mixed (total volume 225 μl). The plate was centrifuged at 4000 rpm for 10 minutes at 4° C. 75 μl of the supernatants (i.e.⅓ of total volume) was carefully pipetted into an optiplate. 200 μl of scintillation cocktail were added (Microscint-40, Packard Bioscience. B.V.). The plate was vigorously shaken for approx. 10 minutes and counted on Topcount.
The IC50 values were converted to Ki (the inhibition constant) using the Cheng-Prusoff equation.
Reagents: Assay buffer: 10 mM potassium phosphate buffer pH 7.6 containing 5 mM DTT, 10 mM sodium molybdate, 100 μM EDTA and 0.1% BSA.

glucocorticoid receptors [2] = biological target: T1, glucocorticoid receptors; test: GR functional assay using SW1353/MMTV-5 cells (dexamethasone-induced luciferase); assay type: cell-based; parameters: contains endogenous glucocorticoid receptors; endogenous in cells; host or cells: SW1353/MMTV-5 (human chondrosarcoma, stably carrying the pMAMneo-Luc reporter)
Description: SW1353/MMTV-5 is an adherent human chondrosarcoma cell line that contains endogenous glucocorticoid receptors. It was transfected with a plasmid (pMAMneo-Luc) encoding firefly luciferase located behind a glucocorticoid-responsive element (GRE) derived from a viral promoter (long terminal repeat of mouse mammary tumor virus). A stable cell line SW1353/MMTV-5 was selected with geneticin, which was required to maintain this plasmid.
SW1353/MMTV-5 cells were distributed in 96-well plates and incubated in medium (without geneticin) for 24 hrs (in the absence of CO2).

[3] = Ki from IC50 by Cheng-Prusoff, 2.5 nM 3H-dexamethasone, read-out: GR Binding
[4] = SW1353/MMTV-5 cells, antagonism of 50 nM dexamethasone, luciferase, read-out: GR Functional

SMILES | Ki (glucocorticoid receptors [1]; [3]) | Ki (glucocorticoid receptors [2]; read-out: GR Functional) | Ki (glucocorticoid receptors [2]; [4]) | Ki (glucocorticoid receptors [1]) | Ki (glucocorticoid receptors [2])
Fc1ccc(-n2ncc3c2C=C2CCN(Cc4c[nH]cn4)CC2(Cc2ccccc2)C3)cc1 (centres unmarked) | > 100 nM | > 100 nM |  |  | 
CC(C)(C)c1ccc(S(=O)(=O)N2CCC3=Cc4c(cnn4-c4ccc(F)cc4)C[C@]3(COCCN3CCCCC3)C2)cc1 | < 10 nM | 10 to 100 nM |  |  | 
CC(C)(C)c1ccc(S(=O)(=O)N2CCC3=Cc4c(cnn4-c4ccc(F)cc4)C[C@]3(CCO)C2)cc1 | < 10 nM | 10 to 100 nM |  |  | 
CN(CCO)C[C@]12Cc3cnn(-c4ccc(F)cc4)c3C=C1CCN(S(=O)(=O)c1ccc(C(C)(C)C)cc1)C2 | < 10 nM | < 10 nM |  |  | 
CC(C)(C)c1ccc(S(=O)(=O)N2CCC3=Cc4c(cnn4-c4ccc(F)cc4)C[C@]3(C(=O)N3CCCCC3)C2)cc1 | < 10 nM | > 100 nM |  |  | 
O=S(=O)(c1ccccc1F)N1CCC2=Cc3c(cnn3-c3ccc(F)cc3)C[C@]2(CN2CCOCC2)C1 | < 10 nM | 10 to 100 nM |  |  | 
CC(C)(C)c1ccc(S(=O)(=O)N2CCC3=Cc4c(cnn4-c4ccc(F)cc4)C[C@]3(C(=O)c3ccccc3)C2)cc1 | < 10 nM | < 10 nM |  |  | 
Fc1ccc(-n2ncc3c2C=C2CCN(Cc4ccccc4)CC2(Cc2ccccc2)C3)cc1 (centres unmarked) [drawing 242] | 10 to 100 nM | > 100 nM |  |  | 
COCCOC[C@]12Cc3cnn(C(C)C)c3C=C1CCN(S(=O)(=O)c1ccc(C(C)(C)C)cc1)C2 | < 10 nM | 10 to 100 nM |  |  | 
O=S(=O)(N1CCCCC1)N1CCC2=Cc3c(cnn3-c3ccc(F)cc3)CC2(Cc2ccc(F)cc2)C1 (centres unmarked) | 10 to 100 nM | > 100 nM |  |  | 
C=CCNC[C@]12Cc3cnn(-c4ccc(F)cc4)c3C=C1CCN(S(=O)(=O)c1ccc(C(C)(C)C)cc1)C2 | < 10 nM | 10 to 100 nM |  |  | 
CC(C)S(=O)(=O)N1CCC2=Cc3c(cnn3-c3ccc(F)cc3)CC2(Cc2ccccc2)C1 (centres unmarked) | > 100 nM | > 100 nM |  |  | 
C[C@]12Cc3cnn(-c4ccc(F)cc4)c3C=C1CCN(S(=O)(=O)N1CCCCC1)C2 | 10 to 100 nM | > 100 nM |  |  | 
CC(C)(C)c1ccc(CN2CCC3=Cc4c(cnn4-c4ccc(F)cc4)CC3(Cc3ccc(F)cc3)C2)cn1 (centres unmarked) | < 10 nM | > 100 nM |  |  | 
COC[C@]12Cc3cnn(-c4ccc(F)cc4)c3C[C@@H]1CCN(S(=O)(=O)c1ccc(C(C)(C)C)cc1)C2 | < 10 nM | > 100 nM |  |  | 
O=S(=O)(c1ccc(F)cc1)N1CCC2=Cc3c(cnn3-c3ccc(F)cc3)CC2(Cc2ccc(F)cc2)C1 (centres unmarked) | < 10 nM | 10 to 100 nM |  |  | 
CC(C)(C)c1ccc(S(=O)(=O)N2CC[C@H]3Cc4c(cnn4-c4ccc(F)cc4)C[C@]3(CO)C2)cc1 | > 100 nM | > 100 nM |  |  | 
CN(C)C[C@]12Cc3cnn(-c4ccc(F)cc4)c3C=C1CCN(S(=O)(=O)c1ccccc1)C2 | < 10 nM | 10 to 100 nM |  |  | 
COc1ccc(CC23Cc4cnn(-c5ccc(F)cc5)c4C=C2CCN(Cc2ccccc2)C3)cc1 (centres unmarked) [drawing 244] | < 10 nM | > 100 nM |  |  | 
CCCN1CCC2=Cc3c(cnn3-c3ccc(F)cc3)CC2(Cc2ccc(F)cc2)C1 (centres unmarked) | 10 to 100 nM | > 100 nM |  |  | 
CN1CCN(S(=O)(=O)N2CCC3=Cc4c(cnn4-c4ccc(F)cc4)CC3(Cc3ccc(F)cc3)C2)CC1 (centres unmarked) | 10 to 100 nM | > 100 nM |  |  | 
COc1ccc(-n2ncc3c2C=C2CCN(S(=O)(=O)c4ccc(C(C)(C)C)cc4)C[C@@]2(Cc2ccccc2)C3)cc1 | < 10 nM | 10 to 100 nM |  |  | 
CC(C)(C)c1ccc(S(=O)(=O)N2CCC3=Cc4c(cnn4CC(F)(F)F)C[C@]3(CN3CCCC3)C2)cc1 | 10 to 100 nM | > 100 nM |  |  | 

SMILES | Ki (glucocorticoid receptors [1]; [3]) | Ki (glucocorticoid receptors [2]; read-out: GR Functional) | Ki (glucocorticoid receptors [2]; [4]) | Ki (glucocorticoid receptors [1]) | Ki (glucocorticoid receptors [2])
CC(C)(C)c1ccc(S(=O)(=O)N2CCC3=Cc4c(cnn4-c4ccc(F)cc4)C[C@]3(C(=O)NCc3ccccc3)C2)cc1 | 10 to 100 nM | > 100 nM |  |  | 
Cc1ccc(S(=O)(=O)N2CCC3=Cc4c(cnn4-c4ccc(F)cc4)CC3(Cc3ccc(F)cc3)C2)cc1 (centres unmarked) | < 10 nM | 10 to 100 nM |  |  | 
Fc1ccc(-n2ncc3c2C=C2CCN(Cc4ccccc4)CC2(Cc2ccccc2)C3)cc1 (centres unmarked) [drawing 258] | 10 to 100 nM |  | > 100 nM |  | 
COCCOC[C@]12Cc3cnn(-c4ccc(F)cc4)c3C=C1CCN(S(=O)(=O)N(C)C)C2 | > 100 nM | > 100 nM |  |  | 
CN(C)C[C@]12Cc3cnn(-c4ccc(F)cc4)c3C=C1CCN(S(=O)(=O)c1ccc(F)cc1)C2 | < 10 nM | 10 to 100 nM |  |  | 
N#Cc1ccc(S(=O)(=O)N2CCC3=Cc4c(cnn4-c4ccc(F)cc4)C[C@]3(CN3CCOCC3)C2)cc1 | < 10 nM | > 100 nM |  |  | 
CN(C)C(=O)CN1CCC2=Cc3c(cnn3-c3ccc(F)cc3)CC2(Cc2ccccc2)C1 (centres unmarked) | > 100 nM | > 100 nM |  |  | 
COc1ccc(S(=O)(=O)N2CCC3=Cc4c(cnn4-c4ccc(F)cc4)C[C@]3(CN3CCCCC3)C2)cc1 | 10 to 100 nM | 10 to 100 nM |  |  | 
CCCCn1ncc2c1C=C1CCN(S(=O)(=O)c3ccc(C(C)(C)C)cc3)C[C@@]1(C(=O)OC)C2 | 10 to 100 nM | > 100 nM |  |  | 
CC(C)(C)c1ccc(S(=O)(=O)N2CC[C@H]3Cc4c(cnn4-c4ccc(F)cc4)C[C@]3(CN3CCOCC3)C2)cc1 | < 10 nM | 10 to 100 nM |  |  | 
CC(C)(C)c1ccc(S(=O)(=O)N2CCC3=Cc4c(cnn4-c4ccc(S(N)(=O)=O)cc4)CC3(Cc3ccccc3)C2)cc1 (centres unmarked) [drawing 240] | 10 to 100 nM | > 100 nM |  |  | 
O=S(=O)(N1CCOCC1)N1CCC2=Cc3c(cnn3-c3ccc(F)cc3)CC2(Cc2ccc(F)cc2)C1 (centres unmarked) |  |  |  | 10 to 100 nM | > 100 nM
CC(C)(C)c1ccc(S(=O)(=O)N2CCC3=Cc4c(cnn4-c4ccc(F)cc4)C[C@]3(CN3CCC3)C2)cc1 |  |  |  | < 10 nM | 10 to 100 nM
COC[C@]12Cc3cnn(-c4ccc(F)cc4)c3C=C1CCN(S(=O)(=O)c1ccc(C(C)(C)C)cc1)C2 | < 10 nM | < 10 nM |  |  | 
Fc1ccc(-n2ncc3c2C=C2CCN(Cc4ccncc4)CC2(Cc2ccccc2)C3)cc1 (centres unmarked) | 10 to 100 nM | > 100 nM |  |  | 
Cn1cc2c(n1)C=C1CCN(S(=O)(=O)c3ccc(C(C)(C)C)cc3)CC1(Cc1ccccc1)C2 (centres unmarked) [drawing 232] | < 10 nM | > 100 nM |  |  | 
CCCCS(=O)(=O)N1CCC2=Cc3c(cnn3-c3ccc(F)cc3)C[C@]2(COCCOC)C1 | < 10 nM | 10 to 100 nM |  |  | 
COC(=O)[C@]12Cc3cnn(-c4ccc(F)cc4)c3C=C1CCN(S(=O)(=O)c1ccc(C(C)(C)C)cc1)C2 | < 10 nM | 10 to 100 nM |  |  | 
CC(C)(C)c1ccc(S(=O)(=O)N2CCC3=Cc4c(cnn4-c4ccc(C#N)cc4)CC3(Cc3ccccc3)C2)cc1 (centres unmarked) [drawing 255] | < 10 nM |  | 10 to 100 nM |  | 
CC(C)(C)c1ccc(S(=O)(=O)N2CCC3=Cc4c(cnn4Cc4ccccc4)CC3(Cc3ccccc3)C2)cc1 (centres unmarked) [drawing 253] | < 10 nM |  | > 100 nM |  | 
O=S(=O)(c1ccccc1)N1CCC2=Cc3c(cnn3-c3ccc(F)cc3)C[C@]2(CN2CCCC2)C1 | < 10 nM | < 10 nM |  |  | 
CC(C)(C)c1ccc(S(=O)(=O)N2CCC3=Cc4c(cnn4Cc4ccccc4)CC3(Cc3ccccc3)C2)cc1 (centres unmarked) [drawing 237] | < 10 nM | > 100 nM |  |  | 
O=C(Nc1ccccc1)N1CCC2=Cc3c(cnn3-c3ccc(F)cc3)CC2(Cc2ccc(F)cc2)C1 (centres unmarked) | < 10 nM | 10 to 100 nM |  |  | 
